One compound from publication PMC5216742, “Discovery and characterization of a novel potent type II native and mutant BCR-ABL inhibitor (CHMFL-074) for Chronic Myeloid Leukemia (CML)” (Oncotarget, 2016) can be followed below.

Several values for one entry are separate records, joined by “and”; a condition that tells them apart may be missing. Identical values can stand only once.

One test deals with T1, ABL1-nonphosphorylated (Homo sapiens, UniProt P00519).
T1 construct: purchased DiscoveRx (KinomeScan service)
T1 sequence (P00519 whole entry): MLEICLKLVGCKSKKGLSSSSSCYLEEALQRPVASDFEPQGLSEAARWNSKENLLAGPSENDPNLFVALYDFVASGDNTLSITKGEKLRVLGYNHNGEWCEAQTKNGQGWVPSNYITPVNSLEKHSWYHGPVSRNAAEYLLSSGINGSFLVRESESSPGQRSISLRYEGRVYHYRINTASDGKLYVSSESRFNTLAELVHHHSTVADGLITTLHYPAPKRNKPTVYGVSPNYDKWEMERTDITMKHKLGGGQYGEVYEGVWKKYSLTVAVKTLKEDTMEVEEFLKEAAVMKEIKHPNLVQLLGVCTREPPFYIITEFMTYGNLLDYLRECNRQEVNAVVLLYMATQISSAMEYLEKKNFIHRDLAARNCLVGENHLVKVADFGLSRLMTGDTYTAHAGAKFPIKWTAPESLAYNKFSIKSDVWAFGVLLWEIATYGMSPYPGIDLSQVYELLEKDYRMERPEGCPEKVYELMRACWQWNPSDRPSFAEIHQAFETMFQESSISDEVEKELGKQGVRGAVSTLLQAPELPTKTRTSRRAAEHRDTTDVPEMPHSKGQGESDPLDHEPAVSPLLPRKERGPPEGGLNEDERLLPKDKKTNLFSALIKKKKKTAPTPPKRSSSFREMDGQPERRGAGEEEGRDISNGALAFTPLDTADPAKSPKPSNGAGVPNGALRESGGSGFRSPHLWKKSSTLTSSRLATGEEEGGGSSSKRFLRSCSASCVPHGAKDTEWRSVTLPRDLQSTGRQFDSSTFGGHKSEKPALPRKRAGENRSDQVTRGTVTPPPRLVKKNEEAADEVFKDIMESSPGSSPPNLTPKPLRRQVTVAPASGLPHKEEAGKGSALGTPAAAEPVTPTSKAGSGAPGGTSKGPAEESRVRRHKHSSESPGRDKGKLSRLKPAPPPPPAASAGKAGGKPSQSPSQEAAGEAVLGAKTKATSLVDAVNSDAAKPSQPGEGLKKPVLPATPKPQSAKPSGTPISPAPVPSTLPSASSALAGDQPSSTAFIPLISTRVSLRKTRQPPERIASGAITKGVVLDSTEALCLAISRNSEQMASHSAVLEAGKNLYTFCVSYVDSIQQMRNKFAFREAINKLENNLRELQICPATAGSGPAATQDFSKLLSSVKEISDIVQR
Description: KinomeScan profiling. Type of test: binding. Particulars: 1 µM CHMFL-074; read-out: % Control.

Test [1] addresses T2, ABL1 kinase (Homo sapiens, UniProt P00519).
T2 construct: A construct encoding c-ABL residues 229–500 with a His tag; made in house; host or cells: SF9 insect cells (baculovirus, pFASTHTA)
As to the kind of experiment: Invitrogen Z'LYTE biochemical kinase assay. As for the experimental part:
(§1) A construct encoding c-ABL residues 229–500 with a His tag was cloned into baculovirus expression vector pFASTHTA. The protein was expressed by infecting SF9 cells with high titer viral stocks for 48 hours. Cells were harvested and lysed in 30 mM Tris pH 7.4, 150 mM NaCl, 3 mM KCl, 10% glycerol, 1 mM PMSF, 2 mM TCEP, 1 mM ADP, 20 mM Imidazole. The supernatant was loaded to Ni-NTA Column (QIAGEN, 1018244). Then the proteins were gradient washed using the same buffer with 50 mM, 100 mM imidazole, then the ABL protein was eluted with Elution buffer (20 mM Tris, 500 mM NaCl, 1% glycerol, 1 mM TCEP, 0.5 mM ADP, 300 mM Imidazole, pH 8.0). The eluted protein was loaded on desalt column PD-10(GE) to change the buffer to 20 mM Tris, 500 mM NaCl, 1% glycerol, 2 mM TCEP, pH 8.0. The protein was concentrated to 1 mg/ml and aliquots were frozen and stored at −80 °C.
The fluorescence resonance energy transfer-based Z′-LYTE kinase assay (Invitrogen, USA) was used to evaluate the IC50 value of CHMFL-074 for inhibition of ABL and KIT kinase. […] After 1 hour incubation, the reaction was developed and terminated, and the fluorescence measured with an automated plate reader (SpectraMax I3, USA). […]

Test [2] has as its target T2, ABL1 kinase. Description: Microscale thermophoresis (MST) binding Kd assay. The following applies: binding Kd against ABL1 kinase. The method, then: as §1
The Kd was measured using the Monolith NT.115 from Nanotemper Technologies. Proteins were fluorescently labeled according to the manufacturer's protocol. […] The sample was loaded into the NanoTemper glass capillaries and microthermophoresis carried out using 20% LED power and 30% MST Power. KD were calculated using the mass action equation via the NanoTemper software from duplicate reads of triplicate experiments.

The next test relates to HL-60. As to the kind of experiment: Anti-proliferation, intact cancer cell lines. Particulars: Homo sapiens, HL-60, 72 h. It is filed as cell-based. As for the experimental part: (§2) The K562 (CML), KU812 (CML), MEG-01 (CML), MV4-11 (AML), MOLM14 (AML), U937 (AML), REC-1 (Human B-cell lymphoma cell), HL-60 (Human promyelocytic leukemia cells), MEC-1(CLL), CHL (Hamster lung cell), CHO (Hamster ovary cell) cell lines were obtained from American Type Culture Collection (Manassas, VA). All the cells were grown in a humidified incubator (Thermo, USA) at 37°C under 5% CO2. CHO cells were maintained in DMEM supplemented with 10% FBS, 1% penicillin/strepto-mycin. MV4-11 (AML) were grown in IMDM supplemented with 10% FBS, 1% penicillin/streptomycin. […] For suspension cells, cells were collected by spinning down at 800 rpm/min for 5 min before use.
(§3) A density of 1 × 10^4 to 2.5 × 10^4 cells/mL cells were mixed with various concentrations of compounds then 100 μL suspension was added to each well and incubated for 72 hours. Cell viability was determined using the CellTiter-Glo assay (Promega, USA) or CCK-8 assay (Beboy, China). Both assays were performed according to the manufacturer instructions. For CellTiter-Glo assay, luminescence was determined in a multi-label reader (Envision, PerkinElmer, USA). […] Data were normalized to control group (DMSO). GI50 were calculated using Prism 6.0 (GraphPad Software, San Diego, CA).

The test system of a further test is MEC-1. As to the kind of experiment: Anti-proliferation, intact cancer cell lines. The following applies: Homo sapiens, MEC1, 72 h. It is filed as cell-based. The method, then:
as §2, §3

For the next test, the target named is T3, BCR-ABL (Homo sapiens, UniProt P00519).
T3 construct: BCR N-terminal part (natural fusion partner of p210 BCR-ABL); endogenous in cells; host or cells: K562
T3 sequence (P00519 whole entry, looked up, the tested form may be a part): as the sequence (P00519 whole entry) above
As to the kind of experiment: BCR-ABL auto-phosphorylation (Y245) immunoblotting in K562 cells. Type of test: cell-based. The method, then:
Cells were washed with ice cold phosphate buffered saline (PBS), lysed using radio-immunoprecipitation (RIPA) buffer [150 mM NaCl, 1% (vol/vol) Nonidet P-40, 0.5% (wt/vol) sodium deoxycholate, 0.1% (wt/vol) SDS] in 50 mM Tris HCl (pH 8.0) supplemented with protease and phosphatase inhibitors (Thermo, USA). Protein concentrations were determined using the BCA Protein Assay kit (Beyotime, China) according to the manufacturer's protocol. Proteins were separated by SDS-PAGE and transferred to an Immobilon-P PVDF membrane (Millipore, USA), and blocked in 5% dry milk in Tris Buffered Saline, with Tween 20 (TBST). Membranes were incubated with primary and secondary antibodies, and target proteins were detected with ECL detection reagent (Pierce, USA). β-Actin (Sigma-Aldrich) served as a loading control. Phospho-c-Abl (Tyr245)(73E5) Rabbit mAb (2868), c-Abl antibody (2862), STAT5 (3H7) Rabbit mAb (9358), Phospho-STAT5 (Tyr694)(C71E5) Rabbit mAb (9314), Akt (pan)(C67E7) Rabbit mAb (4691), Phospho-Akt (Thr308) (244F9) Rabbit mAb (4056), Phospho-Akt (Ser473) (D9E) XP® Rabbit mAb (4060), Phospho-CrkL (Tyr207) antibody (3181), CrkL (32H4) Mouse mAb (3182), Phospho-p44/42 MAPK (Erk1/2) (Thr202/Tyr204) (197G2) Rabbit mAb (4377), p44/42 MAPK (Erk1/2) (137F5) Rabbit mAb (4695) antibodies were obtained from Cell Signaling Technology (MA, USA).

T2 sequence (P00519 229-500): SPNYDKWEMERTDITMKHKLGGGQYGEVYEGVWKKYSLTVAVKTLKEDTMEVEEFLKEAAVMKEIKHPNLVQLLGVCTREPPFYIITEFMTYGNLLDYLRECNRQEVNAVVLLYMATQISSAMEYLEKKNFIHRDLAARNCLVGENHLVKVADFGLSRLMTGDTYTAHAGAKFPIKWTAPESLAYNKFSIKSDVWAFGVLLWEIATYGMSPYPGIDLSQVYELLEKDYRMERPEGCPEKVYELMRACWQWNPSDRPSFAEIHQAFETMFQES

Regarding `Cc1ccc(NC(=O)c2ccc(CN3CCN(C)CC3)c(C(F)(F)F)c2)cc1OC1CCN(C(=O)c2cccnc2)CC1` [CHMFL-074], the remaining binding at 1 µM at ABL1-nonphosphorylated turned out to be 0.25%. This compound also gave an IC50 against ABL1 kinase [1] of 25 nM. At ABL1 kinase [2], the Kd was 24 nM and 24.2 nM. Also, the GI50 in the test on HL-60 and with MEC-1 was more than 10000 nM each time. The EC50 at BCR-ABL is less than 100 nM.
